Source: patent US20140323300A1, “HERBICIDAL COMPOUNDS” (SYNGENTA LIMITED, priority 2011, published 2014)

Key:
Type in all cases: in vivo
[1] = tested on: Amaranthus retoflexus (AMARE); assay: Pre-emergence glasshouse herbicide test; conditions: pre-emergence (sprayed after one day cultivation), 1000 g/h, evaluated after 13 days, five point scale
Method: (§1) Seeds of a variety of test species are sown in standard soil in pots (Alopecurus myosuroides (ALOMY), Setaria faberi (SETFA), Echinochloa crus-galli (ECHCG), Solanum nigrum (SOLNI), Amaranthus retoflexus (AMARE), Ipomoea hederacea (IPOHE)). After cultivation for one day (pre-emergence) or after 8 days cultivation (post-emergence) under controlled conditions in a glasshouse (at 24/16° C., day/night; 14 hours light; 65% humidity), the plants are sprayed with an aqueous spray solution derived from the formulation of the technical active ingredient in acetone/water (50:50) solution containing 0.5% Tween 20 (polyoxyethelyene sorbitan monolaurate, CAS RN 9005-64-5). Compounds are applied at 1000 g/h. The test plants are then grown in a glasshouse under controlled conditions in a glasshouse (at 24/16° C., day/night; 14 hours light; 65% humidity) and watered twice daily. After 13 days for pre and post-emergence, the test is evaluated for the percentage damage caused to the plant. The biological activities are shown in the following table on a five point scale (5=80-100%; 4=60-79%; 3=40-59%; 2=20-39%; 1=0-19%).

Setaria faberi (SETFA) [2] = assay: Pre-emergence glasshouse herbicide test; conditions: pre-emergence (sprayed after one day cultivation), 1000 g/h, evaluated after 13 days, five point scale
Method: as §1

[3] = tested on: Alopecurus myosuroides (ALOMY); assay: Pre-emergence glasshouse herbicide test; conditions: pre-emergence (sprayed after one day cultivation), 1000 g/h, evaluated after 13 days, five point scale
Method: as §1

[4] = tested on: Ipomoea hederacea (IPOHE); assay: Pre-emergence glasshouse herbicide test; conditions: pre-emergence (sprayed after one day cultivation), 1000 g/h, evaluated after 13 days, five point scale
Method: as §1

Solanum nigrum (SOLNI) [5] = assay: Pre-emergence glasshouse herbicide test; conditions: pre-emergence (sprayed after one day cultivation), 1000 g/h, evaluated after 13 days, five point scale
Method: as §1

[6] = tested on: Echinochloa crus-galli (ECHCG); assay: Pre-emergence glasshouse herbicide test; conditions: pre-emergence (sprayed after one day cultivation), 1000 g/h, evaluated after 13 days, five point scale
Method: as §1

[7] = tested on: Amaranthus retoflexus (AMARE); assay: Post-emergence glasshouse herbicide test; conditions: post-emergence (sprayed after 8 days cultivation), 1000 g/h, evaluated after 13 days, five point scale
Method: as §1

Setaria faberi (SETFA) [8] = assay: Post-emergence glasshouse herbicide test; conditions: post-emergence (sprayed after 8 days cultivation), 1000 g/h, evaluated after 13 days, five point scale
Method: as §1

[9] = tested on: Alopecurus myosuroides (ALOMY); assay: Post-emergence glasshouse herbicide test; conditions: post-emergence (sprayed after 8 days cultivation), 1000 g/h, evaluated after 13 days, five point scale
Method: as §1

[10] = tested on: Ipomoea hederacea (IPOHE); assay: Post-emergence glasshouse herbicide test; conditions: post-emergence (sprayed after 8 days cultivation), 1000 g/h, evaluated after 13 days, five point scale
Method: as §1

Solanum nigrum (SOLNI) [11] = assay: Post-emergence glasshouse herbicide test; conditions: post-emergence (sprayed after 8 days cultivation), 1000 g/h, evaluated after 13 days, five point scale
Method: as §1

[12] = tested on: Echinochloa crus-galli (ECHCG); assay: Post-emergence glasshouse herbicide test; conditions: post-emergence (sprayed after 8 days cultivation), 1000 g/h, evaluated after 13 days, five point scale
Method: as §1

| Structure (SMILES) | percentage damage caused to the plant, PRE Application AMARE [1] | percentage damage caused to the plant, PRE Application SETFA (Setaria faberi (SETFA) [2]) | percentage damage caused to the plant, PRE Application ALOMY [3] | percentage damage caused to the plant, PRE Application IPOHE [4] | percentage damage caused to the plant, PRE Application SOLNI (Solanum nigrum (SOLNI) [5]) | percentage damage caused to the plant, PRE Application ECHCG [6] | percentage damage caused to the plant, POST Application AMARE [7] | percentage damage caused to the plant, POST Application SETFA (Setaria faberi (SETFA) [8]) | percentage damage caused to the plant, POST Application ALOMY [9] | percentage damage caused to the plant, POST Application IPOHE [10] | percentage damage caused to the plant, POST Application SOLNI (Solanum nigrum (SOLNI) [11]) | percentage damage caused to the plant, POST Application ECHCG [12] |
| --- | --- | --- | --- | --- | --- | --- | --- | --- | --- | --- | --- | --- |
| O=c1c(O)c(Cl)cnn1-c1ccc(Cl)cc1Cl [Compound 1.001] | 4 (4=60-79%) | 4 (4=60-79%) | 2 (2=20-39%) | 1 (1=0-19%) | 3 (3=40-59%) | 4 (4=60-79%) | 5 (5=80-100%) | 5 (5=80-100%) | 1 (1=0-19%) | 5 (5=80-100%) | 5 (5=80-100%) | 5 (5=80-100%) |
| O=c1c(O)c(Cl)cnn1-c1ccc(C(F)(F)F)cc1Cl [Compound 1.002, 5-chloro-2-[2-chloro-4-(trifluoromethyl)phenyl]-4-hydroxy-pyridazin-3-one] | 5 (5=80-100%) | 4 (4=60-79%) | 2 (2=20-39%) | 4 (4=60-79%) | 5 (5=80-100%) | 5 (5=80-100%) | 5 (5=80-100%) | 5 (5=80-100%) | 1 (1=0-19%) | 5 (5=80-100%) | 5 (5=80-100%) | 5 (5=80-100%) |
| CS(=O)(=O)c1cc(C(F)(F)F)ccc1-n1ncc(Cl)c(O)c1=O [Compound 1.003] | 5 (5=80-100%) | 5 (5=80-100%) | 5 (5=80-100%) | 5 (5=80-100%) | 5 (5=80-100%) | 5 (5=80-100%) | 5 (5=80-100%) | 5 (5=80-100%) | 5 (5=80-100%) | 5 (5=80-100%) | 5 (5=80-100%) | 5 (5=80-100%) |
| Cc1c(-n2ncc(Cl)c(O)c2=O)ccc(S(C)(=O)=O)c1C1=NOCC1 [Compound 1.004] | 5 (5=80-100%) | 5 (5=80-100%) | 5 (5=80-100%) | 5 (5=80-100%) | 5 (5=80-100%) | 5 (5=80-100%) | 5 (5=80-100%) | 5 (5=80-100%) | 5 (5=80-100%) | 5 (5=80-100%) | 5 (5=80-100%) | 5 (5=80-100%) |
| CCc1cnn(-c2ccc(S(C)(=O)=O)c(C3=NOCC3)c2C)c(=O)c1O [Compound 1.005] | 5 (5=80-100%) | 2 (2=20-39%) | 4 (4=60-79%) | 4 (4=60-79%) | 5 (5=80-100%) | 4 (4=60-79%) | 5 (5=80-100%) | 5 (5=80-100%) | 5 (5=80-100%) | 5 (5=80-100%) | 5 (5=80-100%) | 5 (5=80-100%) |
